Measurements taken from patent US20170000133A1, “BENZOXABOROLE FUNGICIDES” (SYNGENTA PARTICIPATIONS AG, priority 2013, published 2017).

How the values were obtained:
[1] = test system: Pythium ultimum; assay: Pythium ultimum / liquid culture (seedling damping off); assay type: cell-based; details: Globisporangium ultimum; 200 ppm; potato dextrose broth, 24° C., 2-3 days after application; read-out: disease control (inhibition of growth determined photometrically)
[2] = test system: Glomerella lagenarium (Colletotrichum lagenarium); assay: Glomerella lagenarium (Colletotrichum lagenarium) / liquid culture (anthracnose); assay type: cell-based; details: Colletotrichum orbiculare, PDB potato dextrose broth, 24° C., 3-4 days after application, read-out: disease control (inhibition of growth measured photometrically)
Summary of the method: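 Conidia of G. lagenarium from cryogenic storage were suspended in potato dextrose broth and added to test compound in DMSO at 200 ppm. Plates were incubated at 24° C, and growth inhibition was read photometrically 3-4 days after application.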

[3] = test system: Sclerotinia sclerotiorum; assay: Sclerotinia sclerotiorum / liquid culture (cottony rot); assay type: cell-based; details: PDB potato dextrose broth, 24° C., 3-4 days after application, read-out: disease control (inhibition of growth determined visually)
Experimental: 18. Sclerotinia sclerotiorum/Liquid Culture (Cottony Rot): Mycelia fragments of a newly grown liquid culture of the fungus were directly mixed into nutrient broth (PDB potato dextrose broth). After placing a (DMSO) solution of the test compounds into a microtiter plate (96-well format) the nutrient broth containing the fungal material was added. The test plates were incubated at 24° C. and the inhibition of growth was determined visually 3-4 days after application.

[4] = test system: Mycosphaerella arachidis (Cercospora arachidicola); assay: Mycosphaerella arachidis (Cercospora arachidicola) / liquid culture (early leaf spot); assay type: cell-based; details: PDB potato dextrose broth, 24° C., 4-5 days after application, read-out: disease control (inhibition of growth determined photometrically)
Summary of the method: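 Conidia from cryogenic storage mixed into potato dextrose broth and added to compound at 200 ppm in DMSO. Incubation at 24° C.; growth inhibition read photometrically 4-5 days after application.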

[5] = test system: Monographella nivalis (Microdochium nivale); assay: Monographella nivalis (Microdochium nivale) / liquid culture (foot rot cereals); assay type: cell-based; details: PDB potato dextrose broth, 24° C., 4-5 days after application, read-out: disease control (inhibition of growth determined photometrically)
[6] = test system: Thanatephorus cucumeris (Rhizoctonia solani); assay: Thanatephorus cucumeris (Rhizoctonia solani) / liquid culture (foot rot, damping-off); assay type: cell-based; details: PDB potato dextrose broth, 24° C., 3-4 days after application, read-out: disease control (inhibition of growth determined photometrically)
Summary of the method: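 Mycelial fragments from fresh liquid culture were suspended in potato dextrose broth and added to compound in DMSO at 200 ppm. After 3-4 days at 24 °C, growth inhibition was measured photometrically.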

[7] = test system: Mycosphaerella graminicola (Septoria tritici); assay: Mycosphaerella graminicola (Septoria tritici) / liquid culture (Septoria blotch); assay type: cell-based; details: Zymoseptoria tritici, PDB potato dextrose broth, 24° C., 4-5 days after application, read-out: disease control (inhibition of growth determined photometrically)
Summary of the method: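 Conidia from cryostorage were suspended in potato dextrose broth and added to test compound in DMSO at 200 ppm in microtiter wells. Plates were incubated at 24° C and growth inhibition measured photometrically 4-5 days after application.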

[8] = test system: Gaeumannomyces graminis; assay: Gaeumannomyces graminis / liquid culture (take-all of cereals); assay type: cell-based; details: PDB potato dextrose broth, 24° C., 4-5 days after application, read-out: disease control (inhibition of growth determined photometrically)
Summary of the method: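 Cryo-stored mycelial fragments in potato dextrose broth exposed to compound in DMSO at 200 ppm. Incubated at 24 °C; growth inhibition read photometrically 4–5 days after application.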

[9] = test system: Fusarium culmorum; assay: microbe, parasite or virus in culture; assay type: cell-based; details: read-out: disease control (inhibition of growth determined visually)
[10] = test system: Puccinia recondita f. sp. tritici; assay: Puccinia recondita f. sp. tritici / wheat / leaf disc preventative (brown rust); assay type: in vivo; details: foliar, wheat leaf segments cv Kanzler, inoculated 1 day after application, assessed 7-9 days after application, read-out: disease control
Excerpt: 3. Puccinia recondita f. sp. tritici/Wheat/Leaf Disc Preventative (Brown Rust): Wheat leaf segments cultivated variety (cv) Kanzler were placed on agar in 24-well plates and sprayed with formulated test compound diluted in water at an application rate of 200 ppm. The leaf disks were inoculated with a spore suspension of the fungus 1 day after application.

[11] = test system: Botryotinia fuckeliana (Botrytis cinerea); assay: Botryotinia fuckeliana (Botrytis cinerea) / liquid culture (gray mould); assay type: cell-based; details: Vogels broth, 24° C., 3-4 days after application, read-out: disease control (inhibition of growth determined photometrically)
Experimental: 10. Botryotinia fuckeliana (Botrytis cinerea)/Liquid Culture (Gray Mould): Conidia of the fungus from cryogenic storage were directly mixed into nutrient broth (Vogels broth). After placing a DMSO solution of test compound into a 96-well microtiter plate at an application rate of 200 ppm, the nutrient broth containing the fungal spores was added. The test plates were incubated at 24° C. and the inhibition of growth was determined photometrically 3-4 days after application.

[12] = test system: Plasmopara viticola; assay: whole plant or invertebrate; assay type: in vivo; details: foliar, read-out: disease control
[13] = test system: Puccinia recondita f. sp. tritici; assay: Puccinia recondita f. sp. tritici / wheat / leaf disc curative (brown rust); assay type: in vivo; details: foliar, 192 h, wheat leaf segments, applied one day after inoculation, assessed 8 dpi, read-out: disease control
Experimental: 4. Puccinia recondita f. sp. tritici/Wheat/Leaf Disc Curative (Brown Rust) Wheat leaf segments are placed on agar in multiwell plates (24-well format). The leaf disks are then inoculated with a spore suspension of the fungus. One day after inoculation the test solution is applied. After appropriate incubation the activity of a compound is assessed 8 dpi (days after inoculation) as curative fungicidal activity. Dose range: 200-22 ppm.

| Compound | inhibition at 200 ppm [1] | inhibition at 200 ppm [2] | inhibition at 200 ppm [3] | inhibition at 200 ppm [4] | inhibition at 200 ppm [5] | inhibition at 200 ppm [6] | inhibition at 200 ppm [7] | inhibition at 200 ppm [8] | inhibition at 200 ppm [9] | pest or weed control at 200 ppm [10] | inhibition at 200 ppm [11] | melting point | pest or weed control at 200 ppm [12] | pest or weed control at 200 ppm [13] |
| --- | --- | --- | --- | --- | --- | --- | --- | --- | --- | --- | --- | --- | --- | --- |
| Cc1csc(NC(=O)c2cc3c(cc2Cl)COB3O)n1 [Compound 147] | ≥ 80% | ≥ 80% | ≥ 80% | ≥ 80% | ≥ 80% | – | – | – | – | – | – | – | – | – |
| C=CCOC(=O)c1cc2c(cc1Cl)COB2O [Compound 215] | ≥ 80% | ≥ 80% | ≥ 80% | ≥ 80% | ≥ 80% | ≥ 80% | ≥ 80% | ≥ 80% | ≥ 80% | – | – | – | – | – |
| O=C(OCC1CCC1)c1cc2c(cc1Cl)COB2O [Compound 225] | ≥ 80% | ≥ 80% | – | ≥ 80% | ≥ 80% | ≥ 80% | ≥ 80% | ≥ 80% | – | ≥ 80% | ≥ 80% | 115 to 117 °C | – | – |
| C=C(C)COC(=O)c1ccc2c(c1)B(O)OC2 [Compound 339] | ≥ 80% | ≥ 80% | – | ≥ 80% | ≥ 80% | ≥ 80% | ≥ 80% | ≥ 80% | – | – | – | – | ≥ 80% | ≥ 80% |
| C=CCC(OC(=O)c1ccc2c(c1)B(O)OC2)C(=O)OC (stereo not drawn) [Compound 348] | ≥ 80% | ≥ 80% | – | ≥ 80% | – | ≥ 80% | – | – | – | – | – | – | ≥ 80% | ≥ 80% |
| C#CCCOC(=O)c1ccc2c(c1)B(O)OC2 [Compound 355] | ≥ 80% | ≥ 80% | – | ≥ 80% | ≥ 80% | ≥ 80% | ≥ 80% | ≥ 80% | – | – | – | – | ≥ 80% | ≥ 80% |
| COC(=O)COC(=O)c1ccc2c(c1)B(O)OC2 [Compound 356] | ≥ 80% | ≥ 80% | – | ≥ 80% | ≥ 80% | ≥ 80% | – | ≥ 80% | – | ≥ 80% | – | – | ≥ 80% | ≥ 80% |
| O=C(OCC#Cc1ccccc1)c1ccc2c(c1)B(O)OC2 [Compound 359] | ≥ 80% | – | ≥ 80% | ≥ 80% | ≥ 80% | ≥ 80% | ≥ 80% | ≥ 80% | ≥ 80% | – | ≥ 80% | – | ≥ 80% | – |
| COC(=O)C#CCOC(=O)c1ccc2c(c1)B(O)OC2 [Compound 361] | ≥ 80% | ≥ 80% | ≥ 80% | ≥ 80% | ≥ 80% | ≥ 80% | ≥ 80% | ≥ 80% | ≥ 80% | – | ≥ 80% | – | ≥ 80% | – |
| O=C(OCC(F)F)c1ccc2c(c1)B(O)OC2 [Compound 365] | ≥ 80% | – | – | ≥ 80% | – | – | – | ≥ 80% | – | – | – | – | ≥ 80% | ≥ 80% |
| O=C(OCc1cccc(F)c1)c1ccc2c(c1)B(O)OC2 [Compound 375] | ≥ 80% | ≥ 80% | ≥ 80% | ≥ 80% | ≥ 80% | ≥ 80% | ≥ 80% | ≥ 80% | ≥ 80% | – | ≥ 80% | 125 to 127 °C | – | – |
| CCC#CCOC(=O)c1cc2c(cc1F)COB2O [Compound 379] | ≥ 80% | ≥ 80% | ≥ 80% | ≥ 80% | ≥ 80% | ≥ 80% | ≥ 80% | ≥ 80% | ≥ 80% | – | – | – | ≥ 80% | – |
| C=CCCOC(=O)c1cc2c(cc1F)COB2O [Compound 389] | ≥ 80% | ≥ 80% | ≥ 80% | ≥ 80% | ≥ 80% | ≥ 80% | ≥ 80% | ≥ 80% | ≥ 80% | – | – | 107 to 109 °C | – | – |
| COC(=O)C(C)OC(=O)c1cc2c(cc1F)COB2O (stereo not drawn) [Compound 393] | ≥ 80% | – | – | – | – | ≥ 80% | – | ≥ 80% | – | – | – | – | ≥ 80% | ≥ 80% |
| N#CCOC(=O)c1cc2c(cc1F)COB2O [Compound 401] | ≥ 80% | – | – | – | – | – | – | – | – | – | – | – | ≥ 80% | ≥ 80% |
| C=C(C)COC(=O)c1cc2c(cc1F)COB2O [Compound 402] | ≥ 80% | – | – | ≥ 80% | ≥ 80% | ≥ 80% | ≥ 80% | ≥ 80% | – | – | – | – | – | ≥ 80% |
| C=CCC(OC(=O)c1cc2c(cc1F)COB2O)C(=O)OC (stereo not drawn) [Compound 410] | ≥ 80% | – | ≥ 80% | – | ≥ 80% | ≥ 80% | – | ≥ 80% | – | – | – | – | ≥ 80% | – |
| C#CCCOC(=O)c1cc2c(cc1F)COB2O [Compound 418] | ≥ 80% | – | ≥ 80% | ≥ 80% | ≥ 80% | ≥ 80% | ≥ 80% | ≥ 80% | – | – | – | – | ≥ 80% | ≥ 80% |
| COC(=O)C#CCOC(=O)c1cc2c(cc1F)COB2O [Compound 424] | ≥ 80% | ≥ 80% | ≥ 80% | ≥ 80% | ≥ 80% | ≥ 80% | ≥ 80% | ≥ 80% | ≥ 80% | – | ≥ 80% | 112 to 114 °C | ≥ 80% | – |
| COC(COC(=O)c1cc2c(cc1Cl)COB2O)OC [Compound 449] | ≥ 80% | ≥ 80% | ≥ 80% | ≥ 80% | ≥ 80% | – | ≥ 80% | ≥ 80% | ≥ 80% | – | – | 122 to 124 °C | – | – |
